In publication PMC6884575, “Suppression of FOXM1 activities and breast cancer growth in vitro and in vivo by a new class of compounds” (NPJ Breast Cancer, 2019):

How the values were obtained:
[1] = test system: human breast cancer cell lines (DT22, MCF7, T47D, BT474, MDA-MB-453, MDA-MB-468, MDA-MB-231); assay: Cell proliferation (WST-1) in panel of breast cancer cell lines; type: cell-based; conditions: cells in culture
Method: WST-1 assay (Roche, Basel, Switzerland) was used to quantify cell viability as described.[38] Absorbance was measured at 450 nm using a VICTOR X5 PerkinElmer 2030 Multilabel Plate Reader. All assays were performed in triplicate and analyzed using Graph Pad Prism 8.0.

[2] = target: T1, FOXM1 (Homo sapiens, UniProt Q08050); assay: Cellular FOXM1 protein level by Western blot; type: cell-based; set-up: endogenous in cells; host or cells: MDA-MB-231, MCF7; conditions: MDA-MB-231 or MCF7 cells over time; NB-55 5/8 µM, NB-73 1.5/4 µM, NB-115 4 µM, FDI-6 8 µM
T1 sequence (Q08050 1-763): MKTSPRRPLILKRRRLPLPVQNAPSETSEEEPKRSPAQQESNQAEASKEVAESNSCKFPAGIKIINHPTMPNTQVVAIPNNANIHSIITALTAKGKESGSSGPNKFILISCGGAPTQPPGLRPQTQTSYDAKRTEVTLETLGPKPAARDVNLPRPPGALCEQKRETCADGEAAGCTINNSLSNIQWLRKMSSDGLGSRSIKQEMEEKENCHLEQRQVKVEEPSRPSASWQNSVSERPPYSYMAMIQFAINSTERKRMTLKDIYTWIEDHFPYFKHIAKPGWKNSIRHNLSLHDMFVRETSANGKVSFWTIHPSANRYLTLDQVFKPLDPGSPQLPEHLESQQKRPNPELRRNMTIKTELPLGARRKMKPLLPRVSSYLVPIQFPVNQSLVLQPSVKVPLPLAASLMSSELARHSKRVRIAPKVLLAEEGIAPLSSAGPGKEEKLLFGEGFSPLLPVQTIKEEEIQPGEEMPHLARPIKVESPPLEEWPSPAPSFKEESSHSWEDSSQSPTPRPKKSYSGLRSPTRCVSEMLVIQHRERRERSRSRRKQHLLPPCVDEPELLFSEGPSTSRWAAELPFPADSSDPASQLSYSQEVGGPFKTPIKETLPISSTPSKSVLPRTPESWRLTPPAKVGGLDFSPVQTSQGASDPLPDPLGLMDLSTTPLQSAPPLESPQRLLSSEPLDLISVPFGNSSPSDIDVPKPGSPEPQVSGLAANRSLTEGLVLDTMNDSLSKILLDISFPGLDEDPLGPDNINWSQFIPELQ
Method: For Western blot analysis, whole-cell extracts were prepared using 1X RIPA lysis buffer (Thermo Fisher) supplemented with 1X protease inhibitor cocktail (Millipore Sigma). […] In some cases, treatments with compound were done in the presence of the proteasome inhibitor MG132 (Calbiochem) as described in the figure legend. […] Band intensities were analyzed with Licor Odyssey 2.1 software. All blots shown together derive from the same experiment and were processed in parallel. Full uncropped images of blots are shown as supplementary figures in the Supplementary Information file. Molecular weight markers were Rainbow markers from GE Healthcare (38–225 kDa) or Precision Plus Dual Color Markers from Biorad (37–250 kDa).

[3] = target: T1, FOXM1; assay: Intracellular localization of FOXM1 (immunofluorescence, nuclear/cytoplasmic fractionation); type: cell-based; set-up: endogenous in cells; host or cells: MDA-MB-231, MCF7; conditions: 24 h, Western blot of nuclear and cytoplasmic extracts
Method: In some cases, treatments with compound were done in the presence of the proteasome inhibitor MG132 (Calbiochem) as described in the figure legend. […] Band intensities were analyzed with Licor Odyssey 2.1 software. All blots shown together derive from the same experiment and were processed in parallel. Full uncropped images of blots are shown as supplementary figures in the Supplementary Information file. Molecular weight markers were Rainbow markers from GE Healthcare (38–225 kDa) or Precision Plus Dual Color Markers from Biorad (37–250 kDa).

[4] = test system: MCF7 cells; assay: RNA-Seq gene regulation in MCF7 cells; type: cell-based, human; conditions: for genes regulated more than 2-fold (Venn diagram): MCF7, 9 h treatment, p < 0.05, FDI-6 20 µM
Method: (§1) For gene expression analysis, total RNA was extracted from cells using Trizol reagent and further cleaned using the Turbo DNase and RNAqueous kits (ThermoFisher). Cells were treated with Veh (0.1% EtOH), or with the compounds indicated for 9 h or 24 h. Once the sample quality and replicate reproducibility were verified, samples from each group were subjected to sequencing. RNA at a concentration of 100 ng/µl in nuclease-free water was used for library construction. cDNA libraries were prepared with the mRNA-TruSeq Kit (Illumina, Inc.). In brief, the poly-A containing mRNA was purified from total RNA, the RNA was fragmented, double-stranded cDNA was generated from fragmented RNA, and adapters were ligated to the ends.
The paired-end read data from the HiSeq 4000 were processed and analyzed through a series of steps. Base calling and de-multiplexing of samples within each lane were done with Casava 1.8.2. The RNA sequences were prepared with Illumina’s TruSeq Stranded mRNAseq Sample Prep kit. Reads were trimmed of adapters and low expression data using Trimmomatic version 0.38.[42] The STAR alignment tool version 2.5.3a was used to align the sequenced reads to the GRCh37 human genome from Ensembl.[43] Gene counts were calculated using subread version 1.5.2.[44],[45] The edgeR Bioconductor package in R was used for normalization and differential expression analysis. Default normalization methods were used, specifically trimmed mean of M values or TMM was used to calculate the normalized expression values. This method calculates the weighted trimmed mean of the log expression ratios in a gene-wise fashion.[46],[47] We considered genes with fold-change > 2 and p-value < 0.05 as statistically significant, differentially expressed.

[5] = target: T1, FOXM1; assay: tr-FRET competitive binding assay with Fl-NB-72 probe; set-up: we attached a terbium donor to purified, full length FOXM1 through a streptavidin-biotin linker; conditions: calculated from IC50 values; Supplementary Table 1; read-out: Ki, affinity for binding to FOXM1 protein
Method: Competitive binding assays of compound binding to FOXM1 by tr-FRET were done in FRET buffer (20 mM Tris, pH 7.5, 50 mM NaCl, 0.01% NP-40 detergent, 10% glycerol) with 0.3 mg/ml ovalbumin and 0.1 mM butylated hydroxy-anisole added fresh daily. Solutions of the protein, fluorescent probe and compound dilutions were prepared at 3× concentrations, the final dilution taking place as they were mixed together in equal portions on the microtiter plate.
Final concentrations were 10^−5 M to 10^−9 M, with the last point being buffer only, no compound. Fluorescein-NB-72 (Fl-NB- 72) was prepared at 1 mM in DMF and stored at −20 °C. It was diluted into FRET buffer to give 100 nM in the assay. Incubations were done in duplicate on black Molecular Devices 96-well microtiter plates. 5 μl of Fl-NB-72 and 5 μl of the compound dilutions, were mixed together on the plate. To this was added 5 µl biotin-FoxM1 and incubated in the dark at room temperature, for 1 h. […] To correct for background signals, biotin-FOXM1 was omitted, and diffusion-enhanced FRET incubations were done in duplicate on black Molecular Devices 96-well microtiter plates. Five microliter of Fl-NB-72 and 5 μl of the compound solutions were mixed together and then 5 µl of FRET buffer plus SaTb was added, mixed and incubated in the dark at room temperature, for 1 h. The tr-FRET signals measured as above were subtracted as a background from the first incubations that contained biotin-FOXM1. Graphs were prepared using Graph Pad/Prism 4.

[6] = Pharmacokinetics in mice after single s.c. or oral dose; type: in vivo, female CD1 mice; conditions: for AUC / Cmax / half-life: female, CD1, mouse, 60 mg/kg, single dose, plasma
Method: The pharmacokinetics of compounds were monitored after single dose administration into female CD1 mice (7–9 weeks of age) via s.c. injection or oral gavage, as described.[39] For s.c. injection, each compound was dissolved in DMSO and then mixed with corn oil for a total injection volume of 100 μL (10% DSMO + 90% corn oil) per mouse. For oral gavage, compounds were administered in a 200 µL formulation of 9/0.5/0.5/90 parts of PEG400/Tween80/Povidone/0.5% Carboxymethylcellulose in DI water. […] Compounds were quantified by LC-MS/MS at the University of Illinois Metabolomics Core Facility. The data were fitted to a non-compartment model.

[7] = test system: FOXM1 target gene expression in MCF7 cells; assay: FOXM1 target gene expression by qRT-PCR; type: cell-based, human; conditions: MCF7, 24 h, compound at its IC50 for proliferation
Method: Total RNA was isolated using TRIzol (Invitrogen) and reverse transcribed using […] reverse transcriptase (New England BioLabs). Real-time PCR was performed using SYBRgreen PCR Master Mix (Quantabio) as described.[15] Relative mRNA levels of genes were normalized to the housekeeping gene 36B4, and fold-change calculated relative to the vehicle treated samples. Results are the average ± SD from at least two independent experiments carried out in triplicate. Primer sequences for the genes studied were obtained from the Harvard Primer Bank. Sequences are available on their website.

[8] = test system: tamoxifen-resistant MCF7 breast cancer cells; assay: Proliferation of tamoxifen-resistant MCF7 cells; type: cell-based, human; conditions: 6 days, cell numbers
Method: resistant MCF7 cells. Cells were treated with NB-73 or trans-hydroxytamoxifen (OH-
Tam) for 6 days and cell numbers were monitored. Values are mean ± SD of three
(1 picture or pasted object on this page, not shown here)

[9] = test system: DT22 breast tumor xenografts; assay: DT22 human breast tumor xenograft growth in NSG mice; type: in vivo; conditions: for tumor growth: DT22 tumors, NSG mice
Method: For examination of the effects of compounds on breast tumor growth suppression, intact female NOD/SCID-gamma (NSG) mice were used as detailed previously.[39] DT-22 breast cancer cells (1 × 10^6 cells/mouse) were injected s.c. into the right axial mammary gland. Mice received s.c. injection or oral gavage daily or every second or third day as indicated, with vehicle or treatment compound, and tumor volume (length × width^2/2) was monitored over time.

[10] = test system: Caspase 3/7 activity; assay: Caspase Glo 3/7 assay; type: cell-based, human; conditions: 1.5 or 3 µM, 24 h
Method: (§2) The cells were analyzed for percentage of apoptotic cells following 24 h or 72 h of vehicle or compound treatment by staining with the Alexa Fluor® 488 Annexin V/Dead Cell Apoptosis Kit (Thermo Fisher) and flow cytometry according to the manufacturer’s protocol. Caspase activity in the cells after treatment with control vehicle or compounds was determined using the Caspase-Glo 3/7 Assay system (Promega) in a 96-well format following the manufacturer’s instructions. Supplementary Figs 6 and 7 exemplify the gating strategy used for the cell cycle and apoptosis flow cytometry analyses.

[11] = test system: FOXM1-regulated genes in DT22 tumors; assay: FOXM1-regulated gene expression in xenograft tumors by q-PCR; type: in vivo, NSG mice; conditions: 10 mg/kg NB-73 s.c., end of treatment
Excerpt: Primer sequences for the genes studied were obtained from the Harvard Primer Bank. Sequences are available on their website.

[12] = test system: FOXM1 target genes in MDA-MB-231 cells; assay: RNA-Seq Gene Set Enrichment Analysis against FOXM1 target gene sets; type: cell-based, human; conditions: NB-73 […] 24 h, siFOXM1 25 nM 72 h
Method: as §1
The paired-end read data from the HiSeq 4000 were processed and analyzed through a series of steps. […] Reads were trimmed of adapters and low expression data using Trimmomatic version 0.38.[42] The STAR alignment tool version 2.5.3a was used to align the sequenced reads to the GRCh37 human genome from Ensembl.[43] Gene counts were calculated using subread version 1.5.2.[44],[45] […]
Gene Set Enrichment Analysis (GSEA)[48] was used for examination of our genome-wide expression profiles. Overrepresented gene ontology (GO) biological processes were determined by the web-based DAVID Bioinformatics Resources database.[49],[50] […]

[13] = test system: MDA-MB-231 cells; assay: Apoptosis by AnnexinV/propidium iodide flow cytometry; type: cell-based, human; conditions: 1.5 or 3 µM, 24 h or 72 h
Method: as §2

[14] = test system: MDA-MB-231 cells; assay: Cell cycle analysis by flow cytometry; type: cell-based, human; conditions: synchronized, released 24 h, 1.5, 3.0, 4.5 µM
Method: Cells were synchronized by double thymidine block prior to cell cycle analysis by Propidium Iodide (PI) staining. Briefly, the cells were blocked with 2 mM thymidine for 18 h, then released with fresh media for 8 h followed by re-blocking with thymidine for another 16 h. Following the second block, the cells were released with or without treatments with the NB compounds and cells were collected and fixed in 70% ethanol at the time points indicated. After alcohol fixation for 2 h, the cells were washed with cold 1XPBS followed by staining with 50 µg/ml PI solution in PBS with addition of 5 µg/ml RNAse A for at least 4 h. The cells were then analyzed by the Flow Cytometry analyzer BD LSR II for percentage of cells in G1/G0, S, and G2/M phases of the cell cycle.

## Nc1c(C(=O)Nc2ccc(F)cc2)sc2nc(-c3cccs3)cc(C(F)(F)F)c12 [FDI-6, reference compound]
[1]
  potency in cells in culture: potency similar to NB-55
[2]
  intracellular level of FOXM1: minimally affected
[3]
  intracellular localization of FOXM1: does not change the intracellular localization of FOXM1
[4]; MCF7, 9 h, more than 2-fold, FDR < 0.05
  genes regulated that overlapped with NB-73 regulated genes: 48%
[4]
  genes regulated more than 2-fold (Venn diagram): 664 genes
[5]
  Ki: 143 nM
[6]; oral, 40 mg/kg
  blood levels: undetectable
[6]; s.c., 20 mg/kg
  blood levels: only very low blood levels
[7]
  expression of ATF3, a gene suppressed by FOXM1: increased expression of ATF3
  expression of FOXM1 stimulated target genes (FOXM1C, AURKB, CCNB1, PLK1): significantly reduced the expression

## C[N+]1(CCCCCCOc2ccc(C(=C3C4CC5CC(C4)CC3C5)c3ccc(OCCCCCC[N+]4(C)CCCCCC4)cc3)cc2)CCCCCC1 [NB-73]
[8]
  proliferation of tamoxifen-resistant MCF7 cells: effectively suppressed the proliferation
[9]; 5 mg/kg s.c. daily then every other day from day 21
  tumor growth: reduced tumor growth
[9]; 10 mg/kg s.c. daily then every other day from day 21
  tumor growth: more markedly suppressed growth
[9]; s.c., 20 mg/kg every other day for 10 days then 10 mg/kg every other day
  tumor growth: greatly suppress tumor growth
[9]; low doses (2–20 mg/kg) s.c. daily or every other day
  tumor growth in vivo: greatly suppress tumor growth
[10]
  caspase 3/7 activity: increased
[11]
  expression of FOXM1-regulated genes in tumors: greatly reduced
[12]
  normalized enrichment score (NES), FOXM1 target gene set: -1.32
[4]
  genes regulated more than 2-fold (Venn diagram): 870 genes
[13]
  percent of apoptotic cells: increased the percent of apoptotic cells
[14]
  percent of cells in G2/M: large increase in the percent of cells in G2/M
  percent of cells in S phase: decrease in the percent of cells in S phase
[6]; after oral administration
  blood levels of compound: only very low levels
[6]; after s.c. injection
  blood levels of compound: very high blood levels
[6]; oral
  AUC: 0.015 µM·h
  Cmax: 5.5 nM
  half-life: 40.3 h
[6]; sc
  AUC: 158 µM·h
  Cmax: 5300 nM
  half-life: 31.4 h
[7]
  expression of ATF3, a gene suppressed by FOXM1: increased expression of ATF3
  expression of FOXM1 stimulated target genes (FOXM1C, AURKB, CCNB1, PLK1): significantly reduced the expression
